Patent US20220226340A1, “CASEIN KINASE 1 INHIBITORS FOR USE IN THE TREATMENT OF DISEASES RELATED TO DUX4 EXPRESSION SUCH AS MUSCULAR DYSTROPHY AND CANCER” (Facio Intellectual Property B.V., priority 2019, published 2022)
pEC50, pIC50: −log10 of the molar value. Read-outs that look alike come from different tables or passages of the source.

Tests used:
CK1δ = CK1δ (Homo sapiens, UniProt P48730); test: CK1δ inhibition IC50; type: biochemical; conditions: Table 6; read-out: IC50 CK1δ
DUX4 [1] = test: high-content immunocytochemistry assay of endogenous DUX4 expression in differentiating primary FSHD myotubes; type: cell-based, human; conditions: for pEC50: Homo sapiens, Myotube, 72 h, 72 h treatment protocol, read-out: DUX4 EC50
Excerpt: (§1) A quantitative assay readout was developed based on script-based image analysis. […] To analyse the images, an automated script was developed, enabling the detection of nuclei, myotube borders and DUX4 signals, with the script also detecting artefacts to reduce false positive signals. The script enabled multiple validated readouts including the number of DUX4 positive nuclei and nuclei clusters, the fusion index, myotube area, myotube width and myotube skeleton length (see FIG. 2). Additionally, the total nuclei count was included as a measure of cell loss or compound toxicity.
A compound library containing approximately 5000 annotated compounds was screened in the high-content assay. For this purpose, primary myoblasts were seeded in 384 well plates after which the growth medium was replaced with differentiation medium. After 3 days of differentiation, cells were treated with library compounds (in duplicate on different screening plates) for 15 h, after which they were fixed and stained with antibodies against DUX4, antibodies against myosin heavy chain (MHC), and with DAPI (4′,6-diamidino-2-phenylindole). Script-based analysis provided readouts for DUX4 expression (count of DUX4-positive nuclei or DUX4 intensity) and for potential toxicity (fusion index and nuclei count).
Compounds were incubated with primary FSHD cells for 15 hours, as indicated by the arrow in FIG. 4A.
(§2) Compounds are administered either 15 h before fixation, resembling the original screening protocol, or 72 h before fixation (grey arrow). In the latter case, compounds are present during the whole differentiation process.

CK1ε = CK1ε (Homo sapiens, UniProt P49674); test: CK1ε inhibition IC50; type: biochemical; conditions: Table 6; read-out: IC50 CK1ε
Sequence of CK1ε (P49674 whole entry, the tested form may be a part): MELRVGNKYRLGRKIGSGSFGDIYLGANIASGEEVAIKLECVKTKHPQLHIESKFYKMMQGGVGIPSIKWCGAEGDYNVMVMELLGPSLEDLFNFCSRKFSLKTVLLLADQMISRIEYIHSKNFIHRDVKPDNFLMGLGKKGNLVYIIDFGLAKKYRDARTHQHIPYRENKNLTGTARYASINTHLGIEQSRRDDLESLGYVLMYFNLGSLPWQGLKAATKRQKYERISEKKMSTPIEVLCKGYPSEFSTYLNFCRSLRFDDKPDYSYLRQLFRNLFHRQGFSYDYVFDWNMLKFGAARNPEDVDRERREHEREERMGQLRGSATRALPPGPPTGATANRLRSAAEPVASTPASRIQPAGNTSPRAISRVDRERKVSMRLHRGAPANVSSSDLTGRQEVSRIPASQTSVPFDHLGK

primary FSHD cells = test: fusion index (myotube fusion) readout of the high-content assay in primary FSHD cells; type: cell-based, human; conditions: 72 h, CK1 inhibitor combined with losmapimod, microscopic images
Excerpt: as §1, §2

p38α = p38α (Homo sapiens, UniProt Q16539); test: p38α inhibition IC50; type: biochemical; conditions: Table 6; read-out: IC50 p38α
Sequence of p38α (Q16539 whole entry): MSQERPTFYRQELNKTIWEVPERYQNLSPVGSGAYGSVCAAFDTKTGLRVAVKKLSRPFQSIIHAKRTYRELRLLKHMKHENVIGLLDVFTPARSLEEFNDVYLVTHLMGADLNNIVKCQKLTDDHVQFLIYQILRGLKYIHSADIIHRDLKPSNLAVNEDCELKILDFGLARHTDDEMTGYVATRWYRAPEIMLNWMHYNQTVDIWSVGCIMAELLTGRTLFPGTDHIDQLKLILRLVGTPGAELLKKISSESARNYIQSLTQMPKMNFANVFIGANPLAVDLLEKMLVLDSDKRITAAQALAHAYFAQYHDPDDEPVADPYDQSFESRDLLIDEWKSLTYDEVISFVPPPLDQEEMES

pancreatic tumor cell = conditions: in vitro and in vivo; cited from earlier work
DUX4 [2] = conditions: immortalised differentiated myotube cultures; cited from earlier work

Sequence of CK1δ (P48730 whole entry): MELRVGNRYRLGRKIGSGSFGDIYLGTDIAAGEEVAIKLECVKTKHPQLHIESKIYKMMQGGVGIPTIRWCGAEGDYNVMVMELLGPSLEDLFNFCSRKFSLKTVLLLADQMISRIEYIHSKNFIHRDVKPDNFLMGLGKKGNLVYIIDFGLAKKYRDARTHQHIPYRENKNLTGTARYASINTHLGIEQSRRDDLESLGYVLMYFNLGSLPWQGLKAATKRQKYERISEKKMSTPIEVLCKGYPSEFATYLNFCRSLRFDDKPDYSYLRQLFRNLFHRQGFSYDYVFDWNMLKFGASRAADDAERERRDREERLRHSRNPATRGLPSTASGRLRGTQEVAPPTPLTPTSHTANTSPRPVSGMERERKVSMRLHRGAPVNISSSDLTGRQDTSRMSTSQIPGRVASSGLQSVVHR

Row | pIC50 (CK1δ) | pEC50 (DUX4 [1]; Table 4) | pEC50 (DUX4 [1]; Table 6) | pIC50 (CK1ε) | pIC50 (p38α) | Compound | effect on DUX4 (DUX4 [1]; 72 h treatment) | myotube formation in the presence of increasing concentrations of losmapimod (primary FSHD cells) | pancreatic tumor cell growth (pancreatic tumor cell) | effect on DUX4 expression (DUX4 [1]; irrespective of treatment time (15 h or 72 h)) | expression of DUX4 (DUX4 [2])
1 | 7.80 | 7.22 to 8.00 | 8.00 | 8.05 | 7.82 | Fc1ccc(-c2nc3ccc(N4CCNCC4)nn3c2-c2ccncc2)cc1 [Nr. 8] | near maximal DUX4 inhibition | myotube formation is still intact | – | – | –
2 | – | – | – | – | – | COc1cc(OC)c(C=C2C(O)=Nc3ccccc32)c(OC)c1 [IC261] | – | – | reduces pancreatic tumor cell growth | – | –
3 | 7.48 | 5.32 | 5.32 | 7.28 | – | Cn1cc(-c2ccnc3c2C(=O)OC3)c(-c2ccc(F)cc2)n1 [Nr. 4] | – | myotube formation is still intact | – | – | –
4 | – | – | – | – | – | COc1cc(OC)c2c(=O)[nH]c(-c3cc(C)c(OCCO)c(C)c3)nc2c1 [RVX-208, reference compound] | – | – | – | did not show any effect on DUX4 expression | can inhibit the expression of DUX4
